From patent US20160220464A1 (WUHAN OPTICS VALLEY BRIDGEBIOMED INTERNATIONAL CORPORATION, priority 2013, published 2016)
Read-outs that look alike come from different tables or passages of the source. Where no end group is shown, it is not given here.

Experiments:
Type in all cases: cell-based
B2 receptor = target: T1, B2 receptor (Homo sapiens, UniProt P30411); assay: Relative PG secretion with B2 receptor inhibitor HOE-140; conditions: 1 μM BK set as 100%
T1 construct: The cell strains used in the study were human primary vein endothelial cells (HPVEC) and human aortic smooth muscle cells (HASMC); endogenous in cells; host or cells: human primary vein endothelial cells (HPVEC) and human aortic smooth muscle cells (HASMC)
T1 sequence (P30411 1-391): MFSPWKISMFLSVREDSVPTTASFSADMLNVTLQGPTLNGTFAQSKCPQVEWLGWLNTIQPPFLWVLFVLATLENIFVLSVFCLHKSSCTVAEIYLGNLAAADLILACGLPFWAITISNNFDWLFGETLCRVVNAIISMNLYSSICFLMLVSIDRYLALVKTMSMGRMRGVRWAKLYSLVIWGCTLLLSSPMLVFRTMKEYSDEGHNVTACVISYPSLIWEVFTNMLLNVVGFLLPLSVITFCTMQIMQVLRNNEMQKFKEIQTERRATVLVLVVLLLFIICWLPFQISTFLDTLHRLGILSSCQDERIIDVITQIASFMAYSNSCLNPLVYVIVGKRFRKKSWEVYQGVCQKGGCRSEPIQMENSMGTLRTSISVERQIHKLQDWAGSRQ
Experimental: Two different cell lines were transferred into T-75 cell culture flask, and then the instructions of PG kit were strictly followed when cells have reached the appropriate density. Day 1. Cells were seeded in 24 well dishes with minimum medium and allowed to adhere overnight. Day 2. Cells were starved in the serum-free conditioned medium. Day 3. […] Cells were incubated at 37° C. for 1 h. The supernatant was collected after incubation for later use. Day 4. 24 well dishes were washed and then dyed for 45-90 min, and then the quantitative analysis was carried out.

[1] = tested on: human aortic smooth muscle cells (HASMC); assay: PG subtype secretion by EIA in HASMC; conditions: 10 nM, 1 μM BK set as 100%
[2] = target: T2, bradykinin (BK) B2 receptors (Homo sapiens, UniProt P30411); assay: PG secretion by BK B2 receptor agonists (PG kit, OD), EC50 and Emax; conditions: HASMC; for EC50: 1 h incubation at 37° C.
T2 construct: The cell strains used in the study were human primary vein endothelial cells (HPVEC) and human aortic smooth muscle cells (HASMC); endogenous in cells; host or cells: human primary vein endothelial cells (HPVEC) and human aortic smooth muscle cells (HASMC)
T2 sequence (P30411 1-391): T1 sequence (P30411 1-391)
Experimental: Implantation Two cell lines were transferred into T-75 cell culture flask, and then the instructions of PG kit were strictly followed when cells have reached the appropriate density. Day 1 Cells were seeded in 24 well dishes with minimum medium and allowed to adhere overnight. Day 2 Cells were starved in the serum-free conditioned medium. Day 3 Minimum medium were used, and YLB-01, YLB-02 and YLB-03 were added to the medium, in which the concentration was 0.1 nM, 1 nM, 10 nM, 30 nM, 100 nM, 300 nM, 1 μM, 3 μM and 10 μM, respectively; the cells were incubated at 37° C. for 1 h. The supernatant was collected after incubation for later use. Day 4 24 well dishes were washed and then dyed for 45-90 min, and then the OD value was measured for analysis. The cell strains used in the study were human primary vein endothelial cells (HPVEC) and human aortic smooth muscle cells (HASMC).

[3] = tested on: human primary vein endothelial cells (HPVEC); assay: PG subtype secretion by EIA in HPVEC; conditions: 10 nM, 1 μM BK set as 100%
Experimental: In order to study of prostaglandin subtypes secretion triggered by activation of B2 receptor by these three compounds, human primary vein endothelial cells (HPVEC) and human aortic smooth muscle cells (HASMC) were used for PG secretion, following the same protocol above; 10 nM of these compounds, YLB-1, YLB-2, YLB-3 was added. […] These percentage values above were all calibrated with respect to bradykinin.

BK B2 receptor = target: T3, BK B2 receptor (Homo sapiens, UniProt P30411); assay: Relative amount of PG secretion in cell supernatant by enzyme immunoassay (EIA); conditions: 1 h, 1 μM BK set as 100%; for activation at 0.0001 µM: 0.1 nM; for activation at 0.001 µM: 1 nM; for activation at 0.01 µM: 10 nM; for activation at 0.03 µM: 30 nM; for activation at 0.1 µM: 100 nM; for activation at 0.3 µM: 300 nM
T3 construct: The cell strains used in the study were human primary vein endothelial cells (HPVEC) and human aortic smooth muscle cells (HASMC); endogenous in cells; host or cells: human primary vein endothelial cells (HPVEC) and human aortic smooth muscle cells (HASMC)
T3 sequence (P30411 1-391): T1 sequence (P30411 1-391)
Experimental: YLB-01, YLB-02 and YLB-03 were selected for the study as described below in Table 1, and BK was used as control. Implantation Two cell lines were transferred into T-75 cell culture flask, and then the instructions of PG kit were strictly followed when cells have reached the appropriate density. Day 1 Cells were seeded in 24 well dishes with minimum medium and allowed to adhere overnight. Day 2 Cells were starved in the serum-free conditioned medium. […] The supernatant was collected after incubation for later use. Day 4 24 well dishes were washed and then dyed for 45-90 min, and then the OD value was measured for analysis. […] In order to detect endogenous prostaglandin, enzyme immunoassay (EIA) was used to determine the amount of prostaglandin and subtypes thereof in the cell supernatant described above.

Row | Compound | Relative PG Secretion Amount with 1 μM HOE-140 (B2 receptor; agonist 0.1 nM + HOE-140 1 μM) | Relative PG Secretion Amount with 1 μM HOE-140 (B2 receptor; agonist 1 nM + HOE-140 1 μM) | Relative PG Secretion Amount with 1 μM HOE-140 (B2 receptor; agonist 10 nM + HOE-140 1 μM) | Relative PG Secretion Amount with 1 μM HOE-140 (B2 receptor; agonist 30 nM + HOE-140 1 μM) | Relative PG Secretion Amount with 1 μM HOE-140 (B2 receptor; agonist 100 nM + HOE-140 1 μM) | Relative PG Secretion Amount with 1 μM HOE-140 (B2 receptor; agonist 300 nM + HOE-140 1 μM) | Relative PG Secretion Amount with 1 μM HOE-140 (B2 receptor; agonist 1 μM + HOE-140 1 μM) | Relative PG Secretion Amount with 1 μM HOE-140 (B2 receptor; agonist 3 μM + HOE-140 1 μM) | Relative PG Secretion Amount with 1 μM HOE-140 (B2 receptor; agonist 10 μM + HOE-140 1 μM) | PGD2 [1] | PGE2 [1] | PGF-2a [1] | EC50 [2] | Emax ([2]; relative to BK, read-out: Emax) | Emax ([2]; relative to BK) | PGD2 [3] | PGE2 [3] | PGF-2a [3] | activation at 0.0001 µM (BK B2 receptor) | activation at 0.001 µM (BK B2 receptor) | other results
1 | COc1nc2c(OCc3c(Cl)ccc(N(C)C(=O)CNC(=O)CCc4ccc(NC(C)=O)nc4)c3Cl)cccc2n1Cc1ccccn1 [YLB-02] | 3.65 ± 2.77% | 0.21 ± 4.42% | 5.60 ± 3.43% | 3.33 ± 1.88% | 0.43 ± 4.16% | 1.05 ± 2.39% | 2.87 ± 3.04% | 4.25 ± 2.06% | 10.1 ± 4.43% | undetectable | 26.33 ± 6.78% | 7.1 ± 3.41% | 40.6 ± 4.19 nM | 70% | 70.44 ± 5.06% | undetectable | 34.15 ± 9.54% | undetectable | 0% | 15.2 ± 3.36% | activation at 0.01 µM (BK B2 receptor): 26.4 ± 6.06%; activation at 0.03 µM (BK B2 receptor): ~40%; activation at 0.1 µM (BK B2 receptor): 65.6 ± 8.1%; activation at 0.3 µM (BK B2 receptor): 67.3 ± 7.02%; activation at 1 µM (BK B2 receptor): 66.9 ± 8.11%; activation at 3 µM (BK B2 receptor): 70.4 ± 5.06%; activation at 10 µM (BK B2 receptor): 65.5 ± 5.78%
2 | CNC(=O)N1CCN(CCC(=O)NCC(=O)N(C)c2ccc(Cl)c(COc3cccc4c3nc(OC)n4Cc3ccccn3)c2Cl)CC1 [YLB-03, 4-{2-[({[2,4-Dichloro-3-(2-methoxy-1-pyridin-2-ylmethyl-1H-benzoimidazol-4-yloxymethyl)-phenyl]-methyl-carbamoyl}-methyl)-carbamoyl]-ethyl}-piperazine-1-carboxylic acid methylamide] | 0.54 ± 3.59% | 2.65 ± 3.81% | 5.64 ± 4.05% | 4.90 ± 4.83% | 3.97 ± 2.75% | 0.48 ± 3.50% | 5.14 ± 2.67% | 7.33 ± 4.12% | 26.08 ± 7.56% | undetectable | 27.83 ± 10.66% | 8.43 ± 3.57% | 26.2 ± 2.87 nM | 103% | 103.48 ± 9.06% | undetectable | 31.04 ± 8.49% | undetectable | 0.44 ± 1.22% | 10.3 ± 2.3% | activation at 0.01 µM (BK B2 receptor): 47.3 ± 4.22%; activation at 0.03 µM (BK B2 receptor): ~55%; activation at 0.1 µM (BK B2 receptor): 71 ± 4.57%; activation at 0.3 µM (BK B2 receptor): 86.2 ± 8.51%; activation at 1 µM (BK B2 receptor): 85 ± 4.83%; activation at 3 µM (BK B2 receptor): 95.6 ± 7.21%; activation at 10 µM (BK B2 receptor): 103 ± 9.06%
3 | RPPGFSPFR [BK, Bradykinin, reference compound] |  |  |  |  |  |  |  |  |  |  |  |  |  |  |  |  |  |  |  |  | Emax [2]: 101 ± 5.5%
